Experimental data reported in patent publication US4626526A, “(S)-N^6 -2-hydroxypropyladenosines” (Warner-Lambert Company, priority 1984, dated 1986).

Key:
adenosine A2 receptor = target: T1, adenosine A2 receptor (Rattus norvegicus, UniProt P30543); assay: Adenosine Receptor Binding, A2 Receptor Affinity (RBA2), [3H]NECA, rat striatal membranes; details: 4 nM [3H]NECA, 50 nM N6-cyclopentyladenosine
T1 construct: 5 mg original tissue weight of rat weight of rat striatal membranes; tissue Pel-Freez (Rogers, Arkansas); host or cells: rat brain striatum membranes (Sprague-Dawley; Long-Evans hooded rats gave essentially identical results)
Procedure: Brains from 200-500 g mixed sex Sprague-Dawley rats were purchased from Pel-Freez (Rogers, Arkansas). Fresh brains from male Long-Evans hooded rats (Blue Spruce Farms, Altamont, NY) gave essentially identical results. Brains were thawed and then kept on ice while the striata were dissected out. Striata were disrupted in 10 vol of ice-cold 50 mM Tris.HCl (pH 7.7 at 25° C., pH 8.26 at 5° C.) (Tris) for 30 seconds in a Polytron PT-10 (Brinkmann) at setting 5. The suspension was centrifuged at 50,000 xg for ten minutes, the supernatant discarded, the pellet resuspended in 10 vol ice-cold Tris as above, recentrifuged, resuspended at 1 g/5 ml, and stored in plastic vials at -70° C. (stable for at least six months). When needed, tissue was thawed at room temperature, disrupted in a Polytron, and kept on ice until used. […]
Incubations were terminated by filtration through 2.4 cm GF/B filters under reduced pressure. […] Filters were put in scintillation vials, 8 ml of Formula 947 scintillation fluid added, and the vials left overnight, shaken, and counted in a liquid scintillation counter at 40% efficiency.
Nonspecific binding was defined as binding in the presence of 100 μM N^6 -cyclopentyladenosine, and specific binding was defined as total binding minus nonspecific binding. The IC50 was calculated by weighted nonlinear least squares curve-fitting to the mass-action equation. […]

adenosine A1 receptor = target: T2, adenosine A1 receptor (Rattus norvegicus, UniProt P25099); assay: Adenosine Receptor Binding, A1 Receptor Affinity (RBA1), [3H]-CHA; details: rat brain membranes, 1.0 nM [3H]-CHA
T2 construct: Whole brain minus cerebellum and brainstem from male Long Evans rats; from tissue; host or cells: whole brain minus cerebellum and brainstem, male Long Evans rats, membranes
T2 sequence (P25099 1-326): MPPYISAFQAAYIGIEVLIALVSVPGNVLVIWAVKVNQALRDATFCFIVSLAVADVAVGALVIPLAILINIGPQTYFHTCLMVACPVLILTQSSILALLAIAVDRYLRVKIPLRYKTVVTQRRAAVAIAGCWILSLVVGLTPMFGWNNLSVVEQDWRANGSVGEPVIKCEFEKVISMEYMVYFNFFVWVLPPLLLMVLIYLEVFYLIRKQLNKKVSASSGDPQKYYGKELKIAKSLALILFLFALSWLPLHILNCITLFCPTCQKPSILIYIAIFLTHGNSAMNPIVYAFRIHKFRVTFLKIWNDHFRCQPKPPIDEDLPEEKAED
Procedure: Whole brain minus cerebellum and brainstem from male Long Evans rats (150-200 g) was homogenized in 30 volumes of ice-cold 0.05M Tris-HCl buffer pH 7.7 using a Brinkman Polytron PT-10, (setting number 6 for 20 seconds) and centrifuged for ten minutes at 20,000 × g (Sorvall RC-2), 4° C. The supernatant was discarded, and the pellet was resuspended and centrifuged as before. The pellet was resuspended in 20 ml Tris-HCl buffer containing two International Units/ml of adenosine deaminase (Sigma type III from calf intestinal mucosa), incubated at 37° C. for 30 minutes, then subsequently at 0° C. for ten minutes. […]
Tissue homogenate (10 mg/ml) was incubated in 0.05M Tris-HCl buffer pH 7.7 containing 1.0 nM [^3 H]-N^6 -cyclohexyladenosine (^3 H]-CHA) with or without test agents in triplicate for one hour at 25° C. […] The radio-labeled ligand retained on the filter was measured by liquid scintillation spectrophotometry after shaking the filters for one hour or longer on a mechanical shaker in 10 ml of Beckman Ready-Solv HP scintillation cocktail.
Nonspecific binding was defined as the binding which occurred in the presence of 1 mM theophylline. […] The Scatchard plot was calculated by linear regression of the line obtained by plotting the amount of radioligand bound (pmoles/gram of tissue) versus [formula] […] The maximal number of binding sites (Bmax) was calculated from the Scatchard plot.

T1 sequence (P30543 whole entry): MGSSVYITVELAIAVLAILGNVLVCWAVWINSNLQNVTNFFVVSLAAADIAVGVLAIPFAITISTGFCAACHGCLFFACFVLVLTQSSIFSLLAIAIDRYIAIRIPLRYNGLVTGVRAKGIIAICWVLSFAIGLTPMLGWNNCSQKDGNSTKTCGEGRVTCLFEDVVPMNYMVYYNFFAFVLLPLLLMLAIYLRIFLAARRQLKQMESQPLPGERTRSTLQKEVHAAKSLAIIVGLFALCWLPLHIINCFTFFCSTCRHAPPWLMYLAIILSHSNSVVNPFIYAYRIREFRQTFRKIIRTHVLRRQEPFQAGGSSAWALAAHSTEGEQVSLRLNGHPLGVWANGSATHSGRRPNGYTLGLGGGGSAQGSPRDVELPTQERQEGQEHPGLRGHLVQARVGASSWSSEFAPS

C[C@H](O)CNc1ncnc2c1ncn2[C@@H]1O[C@H](CO)[C@@H](O)[C@H]1O [N^6-[(S)-2-hydroxypropyl]adenosine, N^6-[(S)-2-Hydroxypropyl]adenosine]
IC50 (adenosine A2 receptor): 14 µM
IC50 (adenosine A1 receptor): 6 nM
